# Earlier results as cited in US20080108586A1, “COMBINATION THERAPY FOR HUMAN IMMUNODEFICIENCY VIRUS INFECTION” (Incyte Corporation, priority 2006, published 2008).
# Tests used:
# [1] = target: rhesus macaque CCR5 (Macaca mulatta, UniProt P61813)
# [2] = target: human CCR5 (Homo sapiens, UniProt P51681)
# Sequence of human CCR5 (P51681 whole entry): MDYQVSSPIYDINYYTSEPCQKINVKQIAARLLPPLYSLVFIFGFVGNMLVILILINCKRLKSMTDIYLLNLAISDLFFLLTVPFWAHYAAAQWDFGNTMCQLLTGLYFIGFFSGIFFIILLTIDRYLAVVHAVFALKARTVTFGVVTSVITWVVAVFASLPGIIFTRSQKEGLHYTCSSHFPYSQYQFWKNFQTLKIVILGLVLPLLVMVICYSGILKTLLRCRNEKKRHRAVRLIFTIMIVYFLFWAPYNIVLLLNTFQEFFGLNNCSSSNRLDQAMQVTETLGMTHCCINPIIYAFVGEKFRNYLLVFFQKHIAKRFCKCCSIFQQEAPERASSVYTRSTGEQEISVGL
structure (smiles),measurement,setting,value
"Cc1ncnc(C)c1C(=O)N1CCC(C)(N2CCN([C@@H](C)c3ccc(C(F)(F)F)cc3)[C@@H](C)C2)CC1 [AD101, (4,6-dimethylpyrimidin-5-yl)(4-methyl-4-((S)-3-methyl-4-((S)-1-(4-(trifluoromethyl)-phenyl)ethyl)piperazin-1-yl)piperidin-1-yl)methanone]",inhibition of HIV-1 entry via rhesus macaque CCR5,[1],inhibits
same,inhibition of HIV-1 entry via human CCR5,[2],inhibits
